Measured values reported in US10590129B2 (Incozen Therapeutics Pvt. Ltd., priority 2010, dated 2020).

How the values were obtained:
MKN-45 cells = assay: Inhibition of MKN-45 proliferation (MTT); assay type: cell-based, human; settings: Homo sapiens, MKN-45, MKN-45 proliferation
Outline: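 Viability measured by MTT dye reduction on day 5 after compound addition on day 2 to MKN-45 gastric adenocarcinoma cells (high Met expression) seeded on day 1 in complete medium.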

Structure (SMILES)	melting point [°C]	GI50 (MKN-45 cells) [nM]	inhibition at 0.1 µM (MKN-45 cells) [%]	inhibition at 1 µM (MKN-45 cells) [%]
CC(=O)Nc1cccc(-c2ccc3nnn(Cc4ccc5ncccc5c4)c3n2)c1 [Ex 69, N-(3-(3-(quinolin-6-ylmethyl)-3H-[1,2,3]triazolo[4,5-b]pyridin-5-yl)phenyl)acetamide]	198 to 201	–	< 25	< 25
COc1ncc(-c2ccc3nnn(Cc4ccc5ncccc5c4)c3n2)cn1 [Ex 183, 6-((5-(2-Methoxypyrimidin-5-yl)-3H-[1,2,3]triazolo[4,5-b]pyridin-3-yl)methyl)quinoline]	201 to 203	–	< 25	–
FC(F)(F)COc1cccc(-c2ccc3nnn(Cc4ccc5ncccc5c4)c3n2)c1 [Ex 70, 6-((5-(3-(2,2,2-Trifluoroethoxy)phenyl)-3H-[1,2,3]triazolo[4,5-b]pyridin-3-yl)methyl)quinoline]	151 to 154	–	< 25	< 25
O=C(Nc1ccncc1)c1ccc(-c2ccc3nnn(Cc4ccc5ncccc5c4)c3n2)cc1F [Ex 47, 2-Fluoro-N-(pyridin-4-yl)-4-(3-(quinolin-6-ylmethyl)-3H-[1,2,3]triazolo[4,5-b]pyridin-5-yl)benzamide]	217 to 219	–	< 25	50 to 75
OCc1cccc(-c2ccc3nnn(Cc4ccc5ncccc5c4)c3n2)c1 [Ex 4, (3-(3-(quinolin-6-ylmethyl)-3H-[1,2,3]triazolo[4,5-b]pyridin-5-yl)phenyl)methanol]	191 to 193	150 to 500	–	–
COc1ccc(-c2ccc3nnn(Cc4ccc5ncccc5c4)c3n2)cc1F [Ex 66, 6-((5-(3-Fluoro-4-methoxyphenyl)-3H-[1,2,3]triazolo[4,5-b]pyridin-3-yl)methyl)quinoline]	187 to 190	–	< 25	25 to 50
CC(=O)Nc1ccc(-c2ccc3nnn(Cc4ccc5ncccc5c4)c3n2)cc1 [Ex 63, N-(4-(3-(quinolin-6-ylmethyl)-3H-[1,2,3]triazolo[4,5-b]pyridin-5-yl)phenyl)acetamide]	220 to 223	–	< 25	50 to 75

More lines, main results first:

melting point [°C]	GI50 (MKN-45 cells) [nM]	Structure (SMILES)	inhibition at 0.1 µM (MKN-45 cells) [%]	inhibition at 1 µM (MKN-45 cells) [%]
157 to 159	–	CCCNC(=O)c1ccc(-c2ccc3nnn(Cc4ccc5ncccc5c4)c3n2)cc1F [Ex 87, 2-Fluoro-N-propyl-4-(3-(quinolin-6-ylmethyl)-3H-[1,2,3]triazolo[4,5-b]pyridin-5-yl)benzamide]	75 to 100	< 25
166 to 168	–	O=C(NC1CCCC1)c1ccc(-c2ccc3nnn(Cc4ccc5ncccc5c4)c3n2)cc1F [Ex 98, N-Cyclopentyl-2-fluoro-4-(3-(quinolin-6-ylmethyl)-3H-[1,2,3]triazolo[4,5-b]pyridin-5-yl)benzamide]	25 to 50	50 to 75
163 to 165	–	CN(C)C(=O)CCNC(=O)c1ccc(-c2ccc3nnn(Cc4ccc5ncccc5c4)c3n2)cc1F [Ex 76, N-(3-(dimethylamino)-3-oxopropyl)-2-fluoro-4-(3-(quinolin-6-ylmethyl)-3H-[1,2,3]triazolo[4,5-b]pyridin-5-yl)benzamide]	75 to 100	50 to 75
163 to 165	–	O=C(NCc1ccccc1)c1ccc(-c2ccc3nnn(Cc4ccc5ncccc5c4)c3n2)cc1F [Ex 48, N-Benzyl-2-fluoro-4-(3-(quinolin-6-ylmethyl)-3H-[1,2,3]triazolo[4,5-b]pyridin-5-yl)benzamide]	< 25	75 to 100
252 to 254	–	O=C(O)CNC(=O)c1ccc(-c2ccc3nnn(Cc4ccc5ncccc5c4)c3n2)cc1F [Ex 51, 2-(2-Fluoro-4-(3-(quinolin-6-ylmethyl)-3H-[1,2,3]triazolo[4,5-b]pyridin-5-yl)benzamido)acetic acid]	< 25	< 25
